Laboratory results reported in article PMC8705818, “Experimental Characterization of the Interaction between the N-Terminal SH3 Domain of Crkl and C3G” (International Journal of Molecular Sciences, 2021).
Peptide text beside a SMILES is read from it. * marks the point of attachment. Dansyl = CN(C)c1cccc2c(S(=O)(=O)*)cccc12

Biological target: T1, N-SH3 domain of Crkl (WT) (Homo sapiens, UniProt P46109)
T1 construct: The construct encoding the N-SH3 domain of Crkl was subcloned in a pET28b+ plasmid vector; His-tag; made in house; host or cells: E. coli BL21
Assay: Stopped-flow kinetic binding, N-SH3 WT versus C3G277–296
Conditions: 10 °C
Excerpt: In order to characterize the binding reaction between the N-SH3 domain of Crkl and C3G, we conducted kinetic binding experiments with a stopped-flow apparatus, by rapidly mixing the N-SH3 domain versus the C3G277–296 peptide, the latter covalently linked with a dansyl group at its N-terminus (Dansyl-[…]). This modification allowed us to monitor the binding reaction by following the change of Förster resonance energy transfer (FRET) signal upon binding, which generates from the two naturally present tryptophan residues in the N-SH3 domain in position 164 and 165 (donor) and the dansyl group linked to the peptide (acceptor).
To characterize the binding between N-SH3 and the C3G277–296 peptide, we resorted to carry out pre-steady state rapid mixing stopped-flow experiments. In these types of experiments, a common practice lies in performing the kinetic analysis under the so-called pseudo-first-order conditions, i.e., a condition in which one of the two reactants is held at a much higher concentration than the other. In practice, in many cases, it is extremely difficult to achieve such conditions. This is particularly true in cases in which the observed rate constants are so high to approach the experimental limitations of the stopped-flow apparatus. Accordingly, as described below, the analysis of the binding data must be performed by applying the analytical solution of the bimolecular binding transition.
We rapidly mixed a constant concentration of C3G277–296 peptide (0.5 µM) versus increasing concentrations of N-SH3 (ranging from 0.5 to 5 µM) and the observed rate constants (kobs) obtained at different ionic strength conditions (buffer Hepes 50 mM, pH 7.0, 0.15 M, 0.3 M, 0.5 M and 1 M NaCl) were plotted as function of concentration of N-SH3 and fitted with a linear equation (Figure 1). By following previously derived equations [19, 20], the dependence of kobs as function of [N-SH3] was fitted with Equation (1), taking into account the non-pseudo-first order conditions, allowing us to calculate the microscopic association rate constant (kon), the microscopic dissociation rate constant (koff) of the binding reaction and the equilibrium dissociation rate constant KD, such as koff/kon. To increase the reliability of the calculated KD, we resorted to directly obtaining a koff value through displacement experiments (Table 1), in which a preincubated complex of N-SH3 domain and dansylated C3G277–296 peptide (at the concentration of 0.5 and 2 µM, respectively) were rapidly mixed versus a high excess of nondansylated peptide (ranging from 20 to 40 µM). In agreement with the theory in [21], the observed rate constants were insensitive to displacer concentration. In all binding and displacement experiments conducted, traces were satisfactorily fitted with a single-exponential equation. (1) kobs=(kon^2∗(2−[NSH3])^2+koff^2+2konkoff(2+[NSH3]))^1/2
To further investigate the role of charges in the binding reaction between N-SH3 domain and C3G, we resorted to performing kinetic binding experiment at different pH conditions, at a range of pH between 5.0 and 9.0. The observed rate constants obtained at different pH conditions were fitted with Equation (1) (Figure 2, left), and the calculated kinetic parameters kon and koff (obtained from separated displacement experiments) are reported in Table 1.
Kinetic binding experiments were performed on a single-mixing SX-18 stopped-flow instrument (Applied Photophysics), by mixing a constant concentration (0.5 μM) of C3G dansylated versus increasing concentrations of N-SH3 at 10 °C. Ionic strength dependence of wt N-SH3 was performed with concentrations ranging from 1 to 5 µM for 0 M NaCl condition and from 0.5 to 5 µM for 0.15 M, 0.3 M, 0.5 M and 1 M NaCl, buffer Hepes 50 mM pH 7.0. The excitation wavelength was 280 nm, and fluorescence was collected using a 455 nm cut-off filter. At least, five independent acquisitions were collected and averaged for each experiment. […]

T1 sequence (P46109 123-183 limits assumed): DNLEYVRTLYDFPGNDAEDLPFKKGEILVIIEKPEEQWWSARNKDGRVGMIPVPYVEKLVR

kon (pH 5, pH 5.0 (50 mM Sodium Acetate), 0.5 M NaCl, 0.5 µM dansylated peptide vs 4.0–8.0 µM N-SH3): 4.4e+07 ± 1.5e+07 M⁻¹ s⁻¹
kon (pH 5.5, pH 5.5 (50 mM Sodium Acetate), 0.5 M NaCl, 0.5 µM dansylated peptide vs 2.0–7.0 µM N-SH3): 3.7e+07 ± 3e+06 M⁻¹ s⁻¹
kon (pH 6.5, pH 6.5 (Bis–Tris 50 mM), 0.5 M NaCl, 0.5 µM dansylated peptide vs 0.5–5.0 µM N-SH3): 6.5e+07 ± 4e+06 M⁻¹ s⁻¹
kon (pH 7, 0 M NaCl, Hepes 50 mM pH 7.0, 0.5 µM dansylated peptide vs 1–5 µM N-SH3, FRET, ex 280 nm, 455 nm cut-off, at least five acquisitions averaged): 1.3e+08 ± 7e+06 M⁻¹ s⁻¹
kon (pH 7, 0.15 M NaCl, Hepes 50 mM pH 7.0, 0.5 µM dansylated peptide vs 0.5–5 µM N-SH3, FRET): 9.6e+07 ± 8e+06 M⁻¹ s⁻¹
kon (pH 7, 0.3 M NaCl, Hepes 50 mM pH 7.0, 0.5 µM dansylated peptide vs 0.5–5 µM N-SH3, FRET): 8.3e+07 ± 7e+06 M⁻¹ s⁻¹
kon (pH 7, 0.5 M NaCl (ionic strength series), Hepes 50 mM pH 7.0, 0.5 µM dansylated peptide vs 0.5–5 µM N-SH3, FRET): 5.1e+07 ± 4e+06 M⁻¹ s⁻¹
kon (pH 7, 1.0 M NaCl, Hepes 50 mM pH 7.0, 0.5 µM dansylated peptide vs 0.5–5 µM N-SH3, FRET): 6.8e+07 ± 5e+06 M⁻¹ s⁻¹
kon (pH 7, pH 7.0 (Hepes 50 mM), 0.5 M NaCl (pH series), 0.5 µM dansylated peptide vs 1.5–6.0 µM N-SH3): 5.2e+07 ± 5e+06 M⁻¹ s⁻¹
kon (pH 7.5, pH 7.5 (Hepes 50 mM), 0.5 M NaCl, 0.5 µM dansylated peptide vs 0.5–5.0 µM N-SH3): 5.1e+07 ± 5e+06 M⁻¹ s⁻¹
kon (pH 8, pH 8.0 (Tris–HCl 50 mM), 0.5 M NaCl, 0.5 µM dansylated peptide vs 1.5–6.0 µM N-SH3): 5.6e+07 ± 5e+06 M⁻¹ s⁻¹
kon (pH 8.5, pH 8.5 (Tris–HCl 50 mM), 0.5 M NaCl, 0.5 µM dansylated peptide vs 1.5–6.0 µM N-SH3): 6.8e+07 ± 7e+06 M⁻¹ s⁻¹
kon (pH 9, pH 9.0 (Tris–HCl 50 mM), 0.5 M NaCl, 0.5 µM dansylated peptide vs 1.5–6.0 µM N-SH3): 3.9e+07 ± 4e+06 M⁻¹ s⁻¹
SMILES: CC(C)C[C@H](NC(=O)[C@H](C)NC(=O)[C@@H]1CCCN1C(=O)[C@@H]1CCCN1C(=O)[C@@H]1CCCN1C(=O)[C@H](CO)NC(=O)[C@H](CC(N)=O)NC(=O)[C@H](CC(=O)O)NC(=O)[C@@H](NC(=O)[C@@H](NS(=O)(=O)c1cccc2c(N(C)C)cccc12)C(C)C)C(C)C)C(=O)N1CCC[C@H]1C(=O)N1CCC[C@H]1C(=O)N[C@@H](CCCCN)C(=O)N[C@@H](CCCCN)C(=O)N[C@@H](CCCNC(=N)N)C(=O)N[C@@H](CCC(N)=O)C(=O)N[C@@H](CO)C(=O)N[C@@H](C)C(=O)N1CCC[C@H]1C(=O)N[C@@H](CO)C(=O)O [C3G277–296] (Dansyl-VVDNSPPPALPPKKRQSAPS-OH)
